The values below come from article PMC9030254, “Target Hopping from Protein Kinases to PXR: Identification of Small-Molecule Protein Kinase Inhibitors as Selective Modulators of Pregnane X Receptor from TüKIC Library” (Cells, 2022).

A word on the inhibition: it is how much of the control response was suppressed. A higher inhibition goes with strong suppression.

Common to all, as to experiment: Kinase profiling
What all share (assay type): biochemical

For one test, the target named is T1, GSK3alpha (Homo sapiens, UniProt P49840).
T1 construct: purchased ProQinase (Freiburg, Germany)
T1 sequence (P49840 whole entry): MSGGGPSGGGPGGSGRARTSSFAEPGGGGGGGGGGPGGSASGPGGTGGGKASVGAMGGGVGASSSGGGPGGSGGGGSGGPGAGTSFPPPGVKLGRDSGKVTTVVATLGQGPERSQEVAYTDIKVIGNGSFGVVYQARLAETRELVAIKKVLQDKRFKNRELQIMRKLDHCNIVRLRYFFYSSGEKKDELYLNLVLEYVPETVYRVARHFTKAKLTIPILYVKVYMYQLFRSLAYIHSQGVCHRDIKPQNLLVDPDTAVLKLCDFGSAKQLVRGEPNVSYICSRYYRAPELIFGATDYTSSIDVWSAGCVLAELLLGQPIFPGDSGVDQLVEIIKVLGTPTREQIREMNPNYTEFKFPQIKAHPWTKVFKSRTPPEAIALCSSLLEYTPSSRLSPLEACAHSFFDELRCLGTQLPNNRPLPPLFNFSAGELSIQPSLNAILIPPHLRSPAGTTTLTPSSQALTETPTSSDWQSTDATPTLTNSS
The protocol: (§1) The analysis was performed by ProQinase (Freiburg, Germany).

Another test deals with T2, NEK6 (Homo sapiens, UniProt Q9HC98).
T2 construct: purchased ProQinase (Freiburg, Germany)
T2 sequence (Q9HC98 whole entry): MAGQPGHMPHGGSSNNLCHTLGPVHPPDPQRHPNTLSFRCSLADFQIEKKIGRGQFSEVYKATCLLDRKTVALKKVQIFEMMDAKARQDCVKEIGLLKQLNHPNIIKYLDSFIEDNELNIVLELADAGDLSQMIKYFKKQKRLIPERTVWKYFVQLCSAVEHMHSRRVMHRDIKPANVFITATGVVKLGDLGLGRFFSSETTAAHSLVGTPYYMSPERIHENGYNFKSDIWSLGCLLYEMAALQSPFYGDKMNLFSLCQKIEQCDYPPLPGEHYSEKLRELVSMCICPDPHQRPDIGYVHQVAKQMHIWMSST
The protocol: as §1

The target in another test is T3, TLK2 (Homo sapiens, UniProt Q86UE8).
T3 construct: purchased ProQinase (Freiburg, Germany)
T3 sequence (Q86UE8 whole entry): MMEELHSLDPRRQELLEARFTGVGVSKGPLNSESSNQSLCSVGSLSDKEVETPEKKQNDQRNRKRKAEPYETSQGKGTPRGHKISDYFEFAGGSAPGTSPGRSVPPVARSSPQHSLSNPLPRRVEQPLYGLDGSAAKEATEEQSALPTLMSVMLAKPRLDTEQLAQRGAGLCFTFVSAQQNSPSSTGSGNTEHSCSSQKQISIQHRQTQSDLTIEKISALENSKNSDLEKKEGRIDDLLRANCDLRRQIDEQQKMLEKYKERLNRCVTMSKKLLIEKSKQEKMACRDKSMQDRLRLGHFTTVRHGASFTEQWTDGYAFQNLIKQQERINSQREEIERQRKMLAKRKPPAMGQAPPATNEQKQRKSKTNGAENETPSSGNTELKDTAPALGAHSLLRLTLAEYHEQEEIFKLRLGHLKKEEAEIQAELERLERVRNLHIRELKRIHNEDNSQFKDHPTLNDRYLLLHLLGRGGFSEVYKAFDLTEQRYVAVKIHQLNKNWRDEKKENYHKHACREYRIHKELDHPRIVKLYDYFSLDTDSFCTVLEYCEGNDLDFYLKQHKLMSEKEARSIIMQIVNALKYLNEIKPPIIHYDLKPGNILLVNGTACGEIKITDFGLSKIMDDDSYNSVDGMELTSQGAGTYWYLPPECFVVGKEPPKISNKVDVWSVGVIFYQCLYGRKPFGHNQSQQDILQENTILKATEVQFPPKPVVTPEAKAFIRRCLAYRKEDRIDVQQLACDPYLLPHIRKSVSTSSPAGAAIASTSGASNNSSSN
The protocol:
as §1

Another test deals with T4, NEK1 (Homo sapiens, UniProt Q96PY6).
T4 construct: purchased ProQinase (Freiburg, Germany)
T4 sequence (Q96PY6 1-1258): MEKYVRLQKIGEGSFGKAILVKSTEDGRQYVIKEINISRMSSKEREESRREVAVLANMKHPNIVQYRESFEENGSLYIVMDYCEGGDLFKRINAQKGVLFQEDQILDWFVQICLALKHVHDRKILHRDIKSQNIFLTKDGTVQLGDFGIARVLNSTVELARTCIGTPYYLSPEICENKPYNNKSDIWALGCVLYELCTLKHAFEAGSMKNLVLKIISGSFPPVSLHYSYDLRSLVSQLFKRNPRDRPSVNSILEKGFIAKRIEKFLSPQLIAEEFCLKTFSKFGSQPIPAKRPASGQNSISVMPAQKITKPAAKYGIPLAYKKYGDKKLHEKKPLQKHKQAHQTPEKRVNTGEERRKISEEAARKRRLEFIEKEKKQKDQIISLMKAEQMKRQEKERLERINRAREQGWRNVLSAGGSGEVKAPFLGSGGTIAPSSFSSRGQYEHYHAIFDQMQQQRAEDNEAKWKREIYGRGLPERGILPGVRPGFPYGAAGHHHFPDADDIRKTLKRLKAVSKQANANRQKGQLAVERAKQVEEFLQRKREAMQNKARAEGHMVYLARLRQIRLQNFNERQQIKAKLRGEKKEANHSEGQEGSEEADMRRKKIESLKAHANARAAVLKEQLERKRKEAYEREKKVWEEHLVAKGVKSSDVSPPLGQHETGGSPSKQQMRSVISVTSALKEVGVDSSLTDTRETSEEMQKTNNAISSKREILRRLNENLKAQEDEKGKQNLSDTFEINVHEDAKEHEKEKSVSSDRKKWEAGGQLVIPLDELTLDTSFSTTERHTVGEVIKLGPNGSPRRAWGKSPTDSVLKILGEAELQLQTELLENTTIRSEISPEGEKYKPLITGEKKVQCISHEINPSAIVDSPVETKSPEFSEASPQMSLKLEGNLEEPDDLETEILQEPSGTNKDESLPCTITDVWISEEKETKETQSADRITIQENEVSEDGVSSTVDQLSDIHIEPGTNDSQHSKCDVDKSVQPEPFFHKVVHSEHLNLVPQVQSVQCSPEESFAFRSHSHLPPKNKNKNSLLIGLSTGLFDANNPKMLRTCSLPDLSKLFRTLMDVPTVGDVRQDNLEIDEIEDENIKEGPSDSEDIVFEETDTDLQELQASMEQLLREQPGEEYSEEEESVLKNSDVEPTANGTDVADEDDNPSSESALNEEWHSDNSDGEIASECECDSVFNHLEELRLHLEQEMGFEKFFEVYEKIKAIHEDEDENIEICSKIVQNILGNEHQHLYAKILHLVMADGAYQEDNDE
The protocol:
as §1

The target of a further test is T5, PKA (Homo sapiens, UniProt P17612).
T5 construct: purchased ProQinase (Freiburg, Germany)
As for the experimental part: as §1

The target in the next test is T6, PKCnu (Homo sapiens, UniProt O94806).
T6 construct: purchased ProQinase (Freiburg, Germany)
T6 sequence (O94806 1-890): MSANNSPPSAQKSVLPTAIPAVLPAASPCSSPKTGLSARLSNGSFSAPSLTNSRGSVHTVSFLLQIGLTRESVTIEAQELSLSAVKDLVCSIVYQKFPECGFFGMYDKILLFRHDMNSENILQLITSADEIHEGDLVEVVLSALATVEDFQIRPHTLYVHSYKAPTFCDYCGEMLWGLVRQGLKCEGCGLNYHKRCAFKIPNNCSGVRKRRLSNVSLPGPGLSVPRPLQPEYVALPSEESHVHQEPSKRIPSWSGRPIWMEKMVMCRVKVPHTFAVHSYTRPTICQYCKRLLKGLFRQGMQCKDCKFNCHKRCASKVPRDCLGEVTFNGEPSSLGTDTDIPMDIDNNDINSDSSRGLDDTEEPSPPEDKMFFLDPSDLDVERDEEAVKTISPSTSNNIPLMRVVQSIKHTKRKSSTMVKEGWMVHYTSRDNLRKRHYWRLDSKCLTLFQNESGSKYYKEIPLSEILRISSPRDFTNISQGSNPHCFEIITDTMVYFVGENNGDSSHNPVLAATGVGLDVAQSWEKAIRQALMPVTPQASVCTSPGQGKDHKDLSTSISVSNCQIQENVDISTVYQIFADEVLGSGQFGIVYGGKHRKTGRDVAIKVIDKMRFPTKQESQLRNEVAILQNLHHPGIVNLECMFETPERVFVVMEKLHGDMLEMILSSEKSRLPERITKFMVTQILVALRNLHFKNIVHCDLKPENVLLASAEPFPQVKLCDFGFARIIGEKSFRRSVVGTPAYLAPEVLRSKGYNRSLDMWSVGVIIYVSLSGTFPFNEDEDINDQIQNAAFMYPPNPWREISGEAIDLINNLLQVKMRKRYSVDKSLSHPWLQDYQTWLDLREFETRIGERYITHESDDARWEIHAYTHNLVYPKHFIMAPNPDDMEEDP
The protocol: as §1

The target of a further test is T7, MARK3 (Homo sapiens, UniProt P27448).
T7 construct: purchased ProQinase (Freiburg, Germany)
T7 sequence (P27448 whole entry): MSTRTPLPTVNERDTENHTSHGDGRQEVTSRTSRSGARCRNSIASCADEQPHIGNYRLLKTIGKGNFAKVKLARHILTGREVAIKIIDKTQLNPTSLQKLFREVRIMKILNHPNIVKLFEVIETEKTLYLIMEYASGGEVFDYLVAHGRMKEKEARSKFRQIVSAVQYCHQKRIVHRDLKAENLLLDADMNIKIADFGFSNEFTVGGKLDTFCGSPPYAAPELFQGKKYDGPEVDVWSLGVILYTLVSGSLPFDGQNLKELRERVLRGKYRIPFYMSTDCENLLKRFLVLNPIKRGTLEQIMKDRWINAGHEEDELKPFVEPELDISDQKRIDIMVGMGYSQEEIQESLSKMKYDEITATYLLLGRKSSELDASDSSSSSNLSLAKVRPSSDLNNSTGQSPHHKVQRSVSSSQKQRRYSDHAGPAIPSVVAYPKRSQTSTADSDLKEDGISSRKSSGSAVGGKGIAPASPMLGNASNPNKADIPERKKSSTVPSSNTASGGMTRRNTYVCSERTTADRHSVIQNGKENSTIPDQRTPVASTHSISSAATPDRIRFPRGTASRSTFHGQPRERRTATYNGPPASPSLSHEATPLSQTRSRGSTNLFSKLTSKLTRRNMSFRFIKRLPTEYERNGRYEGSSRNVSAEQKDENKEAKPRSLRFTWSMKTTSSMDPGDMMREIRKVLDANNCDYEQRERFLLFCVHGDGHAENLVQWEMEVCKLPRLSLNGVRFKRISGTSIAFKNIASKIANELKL
The protocol:
as §1

The next test has as its target T8, DAPK2 (Homo sapiens, UniProt Q9UIK4).
T8 construct: purchased ProQinase (Freiburg, Germany)
As for the experimental part: as §1

The next test addresses T9, PBK (Homo sapiens, UniProt Q96KB5).
T9 construct: purchased ProQinase (Freiburg, Germany)
T9 sequence (Q96KB5 1-322): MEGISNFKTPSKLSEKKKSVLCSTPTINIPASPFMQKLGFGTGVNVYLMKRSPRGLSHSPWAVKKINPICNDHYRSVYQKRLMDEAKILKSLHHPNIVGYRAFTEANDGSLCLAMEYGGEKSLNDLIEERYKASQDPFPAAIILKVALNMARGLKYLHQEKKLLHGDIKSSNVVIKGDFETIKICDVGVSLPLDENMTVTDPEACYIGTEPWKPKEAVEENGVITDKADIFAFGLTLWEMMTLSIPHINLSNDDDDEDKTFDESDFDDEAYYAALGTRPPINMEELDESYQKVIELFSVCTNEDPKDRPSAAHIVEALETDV
As for the experimental part:
as §1

T8 sequence (Q9UIK4 whole entry): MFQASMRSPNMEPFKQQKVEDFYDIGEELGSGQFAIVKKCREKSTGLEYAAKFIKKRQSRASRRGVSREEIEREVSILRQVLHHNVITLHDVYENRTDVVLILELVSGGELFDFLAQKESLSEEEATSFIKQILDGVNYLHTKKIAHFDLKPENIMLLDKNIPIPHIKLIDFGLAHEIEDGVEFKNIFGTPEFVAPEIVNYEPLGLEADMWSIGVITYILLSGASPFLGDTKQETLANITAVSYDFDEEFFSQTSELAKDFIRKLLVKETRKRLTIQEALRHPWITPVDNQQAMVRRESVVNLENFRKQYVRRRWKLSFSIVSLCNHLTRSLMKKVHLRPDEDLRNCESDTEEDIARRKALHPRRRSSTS

As for `O=C(Cc1ccccc1)Nc1ccc(F)c(Nc2ccc3c(c2)CCCCC3=O)c1` [Compound 100], the Residual activity is listed as 90 % of control at GSK3alpha (1.0E-05 M); 109 % of control on GSK3alpha (1.0E-06 M); 87 % of control at NEK6 (1.0E-05 M); 95 % of control on NEK6 (1.0E-06 M); 162 % of control at TLK2 (1.0E-05 M); 135 % of control at TLK2 (1.0E-06 M). Also, the Residual activity on NEK1 (1.0E-05 M) is reported as 96 % of control; on NEK1 (1.0E-06 M), 98 % of control; on PKA (1.0E-05 M) it was 21 % of control; at PKA (1.0E-06 M), 97 % of control; on PKCnu (1.0E-05 M), 65 % of control; on PKCnu (1.0E-06 M) it was 88 % of control. Moreover, the Residual activity is recorded as 103 % of control on MARK3 (1.0E-05 M); 106 % of control at MARK3 (1.0E-06 M); 124 % of control on DAPK2 (1.0E-05 M); 113 % of control at DAPK2 (1.0E-06 M); 93 % of control on PBK (1.0E-05 M); 128 % of control on PBK (1.0E-06 M). The compound further returned an inhibition at 10 µM against PKA of no less than 50%.

For `O=C(Nc1ccc(F)c(Nc2ccc3c(c2)CCCCC3=O)c1)c1cccc(F)c1` [Compound 109], the Residual activity on GSK3alpha (1.0E-05 M) was 106 % of control; on GSK3alpha (1.0E-06 M), 112 % of control; on NEK6 (1.0E-05 M), 92 % of control; at NEK6 (1.0E-06 M), 96 % of control; on TLK2 (1.0E-05 M), 207 % of control; on TLK2 (1.0E-06 M) it was 120 % of control. For the same compound, the Residual activity on NEK1 (1.0E-05 M) is listed as 93 % of control; at NEK1 (1.0E-06 M) it was 96 % of control; at PKA (1.0E-05 M), 49 % of control; at PKA (1.0E-06 M), 86 % of control; at PKCnu (1.0E-05 M), 69 % of control; on PKCnu (1.0E-06 M), 88 % of control. Further, the Residual activity is 105 % of control on MARK3 (1.0E-05 M); 102 % of control at MARK3 (1.0E-06 M); 133 % of control at DAPK2 (1.0E-05 M); 110 % of control on DAPK2 (1.0E-06 M); 106 % of control on PBK (1.0E-05 M); 95 % of control at PBK (1.0E-06 M). This compound gave an inhibition at 10 µM on PKA of no less than 50%.
